# What was measured:
# [1] = system: mouse splenocytes, THP-1 human monocyte cell line, PBMCs from MS patients; test: Integrated analysis of genes modulated by Copaxone across mouse splenocytes, THP-1 human monocytes and MS patient PBMCs; conditions: human monocytes
# Source text: Genome-wide expression profiles in cells from three different datasets in two different species (human, mouse) were studied. LIMMA was utilized to identify a genome-wide list of differentially expressed genes induced by GA in the primed and ex vivo stimulated mouse splenocytes, as well as in the THP-1 human monocyte cell line. Repeated-measures ANOVA was utilized to find a genome-wide list of genes modulated by GA in treated MS patients. Advanced enrichment algorithms were then applied to elucidate the pathways and cell types modulated by GA.
# The genes modulated by GA treatment in multiple studies were examined for enrichment in particular immunological cell types.
# [2] = system: THP-1 human monocyte cell line; test: Microarray gene expression in THP-1 cells, Polimunol vs Copaxone, 6 hours (Example 9); format: cell-based
# Source text: Based on previous power calculations (using the R package ssize.fdr), to detect differentially-expressed genes with a fold-change between treatments of as low as 1.3 with 80% power the experiment was designed to include six replicates of each condition. The order of sample processing was randomized with respect to treatment in order to avoid creating confounding batch effects.
# RNA was extracted and expression profiled genome-wide using the Affymetrix U133 Plus 2.0 chip. Three batches of Copaxone® and one batch of Polimunol were comparatively tested in six replicates each. RNA processing was performed by Expression Analysis (NC, USA).
# Differentially-expressed probesets were identified across conditions using linear models for microarray data (LIMMA). For comparing Copaxone® (“GA”) and purported generic, comparisons were corrected for mannitol control (i.e., [GA vs mannitol] was compared to [purported generic vs mannitol]). Probesets were filtered by calls of presence on the chip for the relevant samples in the comparison (to be considered present at a given timepoint, a probeset was required to have on average a call of present or marginal across the relevant samples at that timepoint). Probesets were mapped to genes using the U133 Plus 2.0 chip annotation from Affymetrix.
# [3] = Level of Copaxone in THP-1 cell culture medium over time; format: physicochemical; conditions: THP-1 culture medium, over 24 hours; 50 μg/mL spiked
substance,measurement,setting,value
glatiramer acetate [Copaxone®],IL-10 gene expression in all 3 systems,[1],Upregulated expression
same,Number of genes modulated significantly by GA in all three studies,[1],39
same,IL10RA expression relative to mannitol,[2]; adjusted p<2.8e-14,significantly upregulated
same,IL1RN expression relative to mannitol,[2]; adjusted p<2.8e-10,significantly upregulated
same,IL10 expression relative to mannitol,"[2]; probeset called absent, p<0.029",nominally upregulated
same,Copaxone concentration in cell culture medium,[3],44 to 52 µg/mL
